Assay results reported in ChEMBL document CHEMBL1926617, “Antifungal activities of novel non-azole molecules against S. cerevisiae and C. albicans” (Eur J Med Chem, 2012).
Values after ≈ are worked out from the molar mass of the structure shown. Active and inactive are the calls of the source. The rule behind the calls is not given here.

How the values were obtained:
Saccharomyces cerevisiae [1] = experiment: Antifungal activity against Saccharomyces cerevisiae ATCC 24657 assessed as growth inhibition after 24 to 48 hrs by agar plate bioassay; type: functional
Saccharomyces cerevisiae [2] = experiment: Fungistatic activity against Saccharomyces cerevisiae ATCC 24657 assessed as cell proliferation compound after 24 to 48 hrs by agar plate bioassay; type: functional, organism-based
Saccharomyces cerevisiae [3] = experiment: Fungistatic activity against Saccharomyces cerevisiae ATCC 24657 assessed as cell proliferation compound after 24 to 48 hrs by spectrophotometric bioassay; type: functional, organism-based
Saccharomyces cerevisiae [4] = experiment: Antifungal activity against Saccharomyces cerevisiae ATCC 24657 assessed as growth inhibition after 24 to 48 hrs by spectrophotometric bioassay; type: functional
Candida albicans [5] = experiment: Antifungal activity against Candida albicans assessed as morphogenetic transformation after 3 hrs by phase-contrast microscopy; type: functional
Cytochrome P450 2C19 = Cytochrome P450 2C19 (Homo sapiens, UniProt P33261); experiment: Inhibition of human recombinant CYP2C19; type: ADME
Saccharomyces cerevisiae [6] = experiment: Fungistatic activity against Saccharomyces cerevisiae ATCC 24657 assessed as cell proliferation at 100 uM after 24 hrs by agar plate bioassay relative to control; type: functional; settings: ATCC 24657, 24 h
Cytochrome P450 2D6 = Cytochrome P450 2D6 (Homo sapiens, UniProt P10635); experiment: Inhibition of human recombinant CYP2D6; type: ADME
Saccharomyces cerevisiae [7] = experiment: Fungistatic activity against Saccharomyces cerevisiae ATCC 24657 assessed as cell growth at 100 uM after 48 hrs by spectrophotometric bioassay; type: functional, organism-based
Cytochrome P450 1A2 = target: T1, Cytochrome P450 1A2 (Homo sapiens, UniProt P05177); experiment: Inhibition of human recombinant CYP1A2; type: ADME
T1 sequence (P05177 whole entry): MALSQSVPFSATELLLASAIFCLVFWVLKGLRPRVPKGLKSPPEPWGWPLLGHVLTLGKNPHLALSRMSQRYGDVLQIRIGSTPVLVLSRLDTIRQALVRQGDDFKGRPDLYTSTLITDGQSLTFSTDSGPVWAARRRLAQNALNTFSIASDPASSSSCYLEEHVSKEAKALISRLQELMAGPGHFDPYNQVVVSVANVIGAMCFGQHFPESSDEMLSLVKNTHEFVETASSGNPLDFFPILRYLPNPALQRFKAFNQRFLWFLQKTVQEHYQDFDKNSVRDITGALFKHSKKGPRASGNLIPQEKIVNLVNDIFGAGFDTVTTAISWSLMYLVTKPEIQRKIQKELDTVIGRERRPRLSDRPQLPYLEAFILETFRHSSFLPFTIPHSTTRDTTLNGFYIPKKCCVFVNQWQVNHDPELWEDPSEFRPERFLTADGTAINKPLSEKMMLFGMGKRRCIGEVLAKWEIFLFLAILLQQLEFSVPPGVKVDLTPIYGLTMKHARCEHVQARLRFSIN

Cytochrome P450 3A4 = Cytochrome P450 3A4 (Homo sapiens, UniProt P08684); experiment: Inhibition of human recombinant CYP3A4; type: ADME
Candida albicans [8] = experiment: Antifungal activity against Candida albicans ATCC 32032 assessed as growth inhibition after 24 to 48 hrs by agar plate bioassay; type: functional
Saccharomyces cerevisiae [9] = experiment: Fungistatic activity against Saccharomyces cerevisiae ATCC 24657 assessed as cell proliferation at 100 uM after 24 hrs by spectrophotometric bioassay; type: functional, organism-based
Cytochrome P450 2C9 = Cytochrome P450 2C9 (Homo sapiens, UniProt P11712); experiment: Inhibition of human recombinant CYP2C9; type: ADME
Saccharomyces cerevisiae [10] = experiment: Fungistatic activity against Saccharomyces cerevisiae ATCC 24657 assessed as cell proliferation at 90.7 uM after 24 hrs by agar plate bioassay relative to control; type: functional; settings: ATCC 24657, 24 h
Saccharomyces cerevisiae [11] = experiment: Antifungal activity against Saccharomyces cerevisiae ATCC 24657 assessed as growth inhibition at 90.7 uM after 24 hrs by spectrophotometric bioassay; type: functional, organism-based
Saccharomyces cerevisiae [12] = experiment: Fungistatic activity against Saccharomyces cerevisiae ATCC 24657 assessed as cell growth at 90.7 uM after 48 hrs by spectrophotometric bioassay; type: functional, organism-based
Saccharomyces cerevisiae [13] = experiment: Antifungal activity against Saccharomyces cerevisiae ATCC 24657 assessed as growth inhibition at 90.7 uM after 24 hrs by agar plate bioassay; type: functional, organism-based
Saccharomyces cerevisiae [14] = experiment: Fungistatic activity against Saccharomyces cerevisiae ATCC 24657 assessed as cell proliferation at 90.7 uM after 24 hrs by spectrophotometric bioassay; type: functional, organism-based
Saccharomyces cerevisiae [15] = experiment: Antifungal activity against Saccharomyces cerevisiae ATCC 24657 assessed as growth at 90.7 uM after 48 hrs by agar plate bioassay relative to control; type: functional
Saccharomyces cerevisiae [16] = experiment: Antifungal activity against Saccharomyces cerevisiae ATCC 24657 assessed as growth at 90.7 uM after 48 hrs by spectrophotometric bioassay relative to control; type: functional

Cytochrome P450 2C9, sequence (P11712 whole entry): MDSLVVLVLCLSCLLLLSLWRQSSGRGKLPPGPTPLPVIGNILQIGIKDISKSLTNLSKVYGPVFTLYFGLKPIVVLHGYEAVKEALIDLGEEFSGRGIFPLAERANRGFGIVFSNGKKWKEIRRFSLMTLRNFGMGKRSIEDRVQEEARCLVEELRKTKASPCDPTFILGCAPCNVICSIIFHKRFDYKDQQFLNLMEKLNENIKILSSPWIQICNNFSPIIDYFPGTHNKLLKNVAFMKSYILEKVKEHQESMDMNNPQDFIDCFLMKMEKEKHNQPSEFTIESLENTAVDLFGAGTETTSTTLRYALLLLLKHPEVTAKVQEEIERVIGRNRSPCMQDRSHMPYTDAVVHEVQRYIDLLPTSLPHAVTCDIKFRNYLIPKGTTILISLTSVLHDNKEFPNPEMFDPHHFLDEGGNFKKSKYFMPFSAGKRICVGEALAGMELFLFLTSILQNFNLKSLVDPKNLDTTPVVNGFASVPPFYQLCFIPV
Cytochrome P450 2D6, sequence (P10635 whole entry): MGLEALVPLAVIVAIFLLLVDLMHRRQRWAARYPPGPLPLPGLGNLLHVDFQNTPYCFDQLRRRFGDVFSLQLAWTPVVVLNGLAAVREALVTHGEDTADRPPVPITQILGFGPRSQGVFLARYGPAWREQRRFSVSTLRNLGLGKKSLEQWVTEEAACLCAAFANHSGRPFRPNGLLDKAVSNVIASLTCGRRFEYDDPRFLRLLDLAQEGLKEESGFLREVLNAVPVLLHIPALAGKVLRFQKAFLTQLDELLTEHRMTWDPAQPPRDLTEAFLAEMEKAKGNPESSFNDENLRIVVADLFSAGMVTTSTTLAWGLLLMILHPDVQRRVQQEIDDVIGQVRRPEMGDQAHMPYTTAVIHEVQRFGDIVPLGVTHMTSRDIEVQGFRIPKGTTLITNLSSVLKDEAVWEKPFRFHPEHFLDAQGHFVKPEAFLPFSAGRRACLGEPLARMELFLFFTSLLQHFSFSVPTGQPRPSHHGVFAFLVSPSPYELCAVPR
Cytochrome P450 3A4, sequence (P08684 whole entry): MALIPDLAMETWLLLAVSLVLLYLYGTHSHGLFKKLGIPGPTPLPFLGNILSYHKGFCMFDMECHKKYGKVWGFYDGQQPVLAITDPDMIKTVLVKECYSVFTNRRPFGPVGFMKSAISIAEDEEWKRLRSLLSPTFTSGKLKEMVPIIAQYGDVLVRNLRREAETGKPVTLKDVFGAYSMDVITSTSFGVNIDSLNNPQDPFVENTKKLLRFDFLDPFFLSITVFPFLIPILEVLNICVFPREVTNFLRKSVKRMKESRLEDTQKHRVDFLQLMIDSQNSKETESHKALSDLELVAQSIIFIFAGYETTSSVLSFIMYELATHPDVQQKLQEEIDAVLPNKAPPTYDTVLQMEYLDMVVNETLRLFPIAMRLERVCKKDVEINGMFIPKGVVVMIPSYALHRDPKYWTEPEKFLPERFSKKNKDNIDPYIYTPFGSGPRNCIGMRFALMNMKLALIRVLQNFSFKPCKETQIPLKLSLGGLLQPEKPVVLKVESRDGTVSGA
Cytochrome P450 2C19, sequence (P33261 whole entry): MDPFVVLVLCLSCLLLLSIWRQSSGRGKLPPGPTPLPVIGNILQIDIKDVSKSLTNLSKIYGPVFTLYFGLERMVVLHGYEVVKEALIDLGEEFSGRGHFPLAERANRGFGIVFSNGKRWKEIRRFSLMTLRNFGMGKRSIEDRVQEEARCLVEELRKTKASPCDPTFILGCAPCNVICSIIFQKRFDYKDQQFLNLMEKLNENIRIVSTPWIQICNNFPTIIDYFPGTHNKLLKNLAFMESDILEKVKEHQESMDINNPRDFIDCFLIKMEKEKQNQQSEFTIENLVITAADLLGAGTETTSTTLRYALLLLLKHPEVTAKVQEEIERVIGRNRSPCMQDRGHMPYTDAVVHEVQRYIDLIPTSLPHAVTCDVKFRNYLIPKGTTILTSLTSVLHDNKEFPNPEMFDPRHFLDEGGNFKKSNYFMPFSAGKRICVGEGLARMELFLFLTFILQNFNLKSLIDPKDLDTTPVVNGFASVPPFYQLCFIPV

Q: With `C=CCNc1ncnc2sc3c(c12)CCCC3` as the compound, how does the “growth inhibition (GI)” value (Saccharomyces cerevisiae [1]) read?
A: inactive

Q: What about the Activity (Saccharomyces cerevisiae [2]) of the same compound?
A: inactive

Q: What about the Activity (Saccharomyces cerevisiae [3]) of the same compound?
A: inactive

Q: What about the MIC (Saccharomyces cerevisiae [4]) of the same compound?
A: 100 µM (≈ 24.5 µg/mL)

Q: What about the MIC50 (Saccharomyces cerevisiae [4]) of the same compound?
A: 9.98 µM (≈ 2.45 µg/mL)

Q: For `Clc1ccc(COC(Cn2ccnc2)c2ccc(Cl)cc2Cl)c(Cl)c1` (centres undefined) [MICONAZOLE], which MIC (Candida albicans [5]) is on record?
A: 76.9 µM (≈ 32 µg/mL)

Q: `COc1cc(C(=O)N(CCC#N)C2CC(C)CC(C)(C)C2)cc(OC)c1OC` (centres undefined) was tested. Which MIC (Saccharomyces cerevisiae [1]) did it give?
A: > 200 µM

Q: For `Clc1ccc(Cc2ccncc2)cc1`, which MIC (Saccharomyces cerevisiae [1]) is on record?
A: 150 µM (≈ 30.6 µg/mL)

Q: What about the MIC50 (Saccharomyces cerevisiae [1]) of the same compound?
A: 18 µM (≈ 3.67 µg/mL)

Q: For `COc1nc2c(c(-c3ccc[nH]3)c1C#N)Cc1ccccc1-2`, which MIC (Saccharomyces cerevisiae [1]) is on record?
A: > 200 µM

Q: Which MIC (Saccharomyces cerevisiae [1]) does the source give for `Cc1ccc(C(=O)N(C)Cc2ccco2)c(C2CCN(C(=O)c3cc4c(C)nn(C)c4s3)CC2)n1` here?
A: > 200 µM

Q: Which MIC (Saccharomyces cerevisiae [1]) does the source give for `CCOc1ccc(/N=C/c2ccc(N(C)CCC#N)cc2)cc1` here?
A: > 200 µM

Q: `O=C(CC(Sc1ccc2ccccc2c1)c1ccsc1)c1ccc(Cl)cc1` (centres undefined) was tested. Which MIC (Saccharomyces cerevisiae [1]) did it give?
A: > 200 µM

Q: Which MIC (Saccharomyces cerevisiae [1]) does the source give for `CC1=C(C#N)C(c2sc3ccccc3c2C)C2=C(CCCC2=O)N1` (centres undefined) here?
A: > 250 µM

Q: And the MIC50 (Saccharomyces cerevisiae [1])?
A: 118 µM (≈ 39.5 µg/mL)

Q: For `N#CC(c1ccc2c(c1)OCO2)N(Cc1ccccc1)C(=O)c1sc2ccccc2c1Cl` (centres undefined), which MIC (Saccharomyces cerevisiae [1]) is on record?
A: > 200 µM

Q: With `CCOC(=O)/C(C#N)=C/c1ccc(N(C)CCC#N)cc1` as the compound, how does the MIC (Saccharomyces cerevisiae [1]) read?
A: > 200 µM

Q: With `CN(CCC#N)c1ccc(/C=N/c2ccc(C(=O)O)cc2)cc1` as the compound, how does the MIC (Saccharomyces cerevisiae [1]) read?
A: > 200 µM

Q: Which results are given for `COc1ccc(-c2sc(/N=C/c3ccc(N(C)CCC#N)cc3)c(C#N)c2C)cc1OC`?
A: IC50 (Cytochrome P450 2C19): 1.1 µM; MIC (Saccharomyces cerevisiae [1]): 118 µM (≈ 52.5 µg/mL); MIC50 (Saccharomyces cerevisiae [1]): 2.7 µM (≈ 1.2 µg/mL); inhibition at 100 µM (Saccharomyces cerevisiae [6]): 95%; IC50 (Cytochrome P450 2D6): 23.3 µM; Activity (Saccharomyces cerevisiae [7]): inactive; IC50 (Cytochrome P450 1A2): 11.9 µM; IC50 (Cytochrome P450 3A4): 33.2 µM; MIC (Candida albicans [8]): 12 µM (≈ 5.33 µg/mL); Activity (Saccharomyces cerevisiae [9]): Active; IC50 (Cytochrome P450 2C9): 1.2 µM

Q: With `N#C/C(=C\c1ccc(C(F)(F)F)cc1)c1ccc(OCc2c(F)cccc2Cl)cc1` as the compound, how does the MIC (Saccharomyces cerevisiae [1]) read?
A: > 200 µM

Q: How did the MIC (Saccharomyces cerevisiae [1]) turn out when `Cc1n[nH]c(=O)c2noc(/C=C/c3ccsc3)c12` was run?
A: > 200 µM

Q: What does the source list for `Cc1cccc(C(=O)Nc2sc3c(c2C(N)=O)CCCC3)c1`?
A: MIC (Saccharomyces cerevisiae [1]): > 200 µM; MIC50 (Saccharomyces cerevisiae [4]): 50 µM (≈ 15.7 µg/mL)

Q: What does the source list for `O=C(c1ccncc1)c1ccc(Cl)cc1`?
A: MIC (Saccharomyces cerevisiae [1]): > 200 µM; MIC50 (Saccharomyces cerevisiae [1]): 100 µM (≈ 21.8 µg/mL)

Q: For `C=CCn1c(SCC(=O)c2ccccc2)nc2sc3c(c2c1=O)CCC(C)C3` (centres undefined), which MIC (Saccharomyces cerevisiae [1]) is on record?
A: > 200 µM

Q: What does the source list for `CCC(C)n1ncn(-c2ccc(N3CCN(c4ccc(OCC5COC(Cn6cncn6)(c6ccc(Cl)cc6Cl)O5)cc4)CC3)cc2)c1=O` (centres undefined) [ITRACONAZOLE]?
A: inhibition at 90.7 µM (Saccharomyces cerevisiae [10]): 95%; growth inhibition (GI) (Saccharomyces cerevisiae [11]): inactive; Activity (Saccharomyces cerevisiae [12]): inactive; growth inhibition (GI) (Saccharomyces cerevisiae [13]): inactive; Activity (Saccharomyces cerevisiae [14]): Active; fold change (FC) (Saccharomyces cerevisiae [15]): 1.5; MIC (Candida albicans [5]): > 90.7 µM; fold change (FC) (Saccharomyces cerevisiae [16]): 1.5

Q: For `CC1CCc2c(sc(NC(=O)Sc3nnc(-c4ccc(Cl)cc4)n3-c3ccccc3)c2C#N)C1` (centres undefined), which MIC (Candida albicans [8]) is on record?
A: > 100 µM

Q: How did the MIC (Candida albicans [8]) turn out when `Cc1c(-c2ccccc2)sc(/N=C/c2cc(Cl)cc(Cl)c2O)c1C#N` was run?
A: 40 µM (≈ 15.5 µg/mL)

Q: For `C=CCSc1ncccc1C1=NN(CC(=O)N(CCC(=O)OCC)Cc2ccco2)C(=O)C1`, which MIC (Saccharomyces cerevisiae [1]) is on record?
A: > 200 µM

Q: How did the MIC (Saccharomyces cerevisiae [1]) turn out when `CN(CCC#N)c1ccc(/C=N/NC(=O)N/N=C/c2ccc(N(C)CCC#N)cc2)cc1` was run?
A: > 200 µM

Q: With `O=[N+]([O-])c1ccc(Cc2ccncc2)cc1` as the compound, how does the MIC (Saccharomyces cerevisiae [1]) read?
A: > 200 µM

Q: And the MIC50 (Saccharomyces cerevisiae [1])?
A: 120 µM (≈ 25.7 µg/mL)

Q: For `CCC(C)(C)c1ccc(CC(C)CN2C[C@@H](C)O[C@@H](C)C2)cc1` (some centres undefined) [AMOROLFINE], which MIC (Candida albicans [5]) is on record?
A: 202 µM (≈ 64 µg/mL)

Q: With `Cc1ccc(C(=O)N(C)Cc2ccco2)c(C2CCN(C(=O)c3cc(C)c(C)o3)CC2)n1` as the compound, how does the MIC (Saccharomyces cerevisiae [1]) read?
A: > 200 µM

Q: `Cc1nc(SCc2c(F)cccc2Cl)c(C#N)c(C)c1Cc1c(F)cccc1Cl` was tested. Which MIC (Saccharomyces cerevisiae [1]) did it give?
A: > 200 µM

Q: Which MIC (Saccharomyces cerevisiae [1]) does the source give for `COC(=O)c1scc(C)c1NC(=O)c1ccc(C(C)(C)C)cc1` here?
A: > 200 µM
